According to patent US5407950A, “Arylalkanoylamine derivative and drug containing the same” (priority 1990, dated 1995):
Where two headings read alike, the source gives them in different places.

Key:
ICR male mice = assay: Anti-hypoxic activity (Test Example 2), survival time under 4% O2 / 96% N2; assay type: in vivo; conditions: 100 mg/kg, intraperitoneal, 30 min before gas; control = 100
Description: Groups of ICR male mice (Charles River Co.), age 4 to 5 weeks, each group consisting of 10 mice and each mouse having been fasted for 24 hours, were used for the test. Mice were placed in a transparent desiccator (diameter: 19 cm, height: 30 cm) made of synthetic resin and having 2 valves, one at the upper portion and the other at the lower portion, for replacing the gas therein. […] The time measured was taken as the survival time.
Each tested compound suspended in an solvent was intraperitoneally administered 30 minutes before the start of the mixed gas feeding. A group of mice to which only the solvent was intraperitoneally administered was used as a control.
The anti-hypoxic activity was determined according to the following equation: [formula]

[1] = molecular target: T1, prolyl endopeptidase from canine brain (Canis lupus familiaris, UniProt A0A8I3N6C8); assay: Inhibitory activity against prolyl endopeptidase from brain (Test Example 1); assay type: biochemical
T1 construct: A prolyl endopeptidase was prepared from canine brains; from tissue; host or cells: canine brain
Description: Following buffer solutions A and B were used for the measurement.
Buffer A: 20 mM Tris-HCl buffer (pH 7.0)
Buffer B: Buffer A containing 0.1% gelatin, 1 mM EDTA, 1 mM 2-mercaptoethanol.
Dilution of the prolyl endopeptidase preparation with Buffer B to a concentration of 0.4 units/ml was done, and the resulting solution was defined as enzyme solution. To 940 μl of Buffer A was added 50 μl of the enzyme solution, followed by incubating at 37° C. for 10 minutes, to which was added 10 μl of a solution of a sample compound dissolved in dimethyl sulfoxide, and stirred and mixed together, followed by staying at 37° C. for ten minutes. To the mixture was added 100 μl of carbobenzoxyglycylprolyl p-nitroanilide dissolved in 40% dioxane to a final concentration of 2.5 mM, for reaction at 37° C. for 10 minutes, to which was added 100 μl of 50% acetic acid containing 10% Triton X-100, thereby terminating the reaction.
For controls, dimethyl sulfoxide was added at the same amount (10 μl) instead of the solution of the sample compound; for blind tests, dimethyl sulfoxide and Buffer B were added instead of a sample compound and the enzyme solution, respectively, at the same amounts for effecting the same procedure.

ICR mice = assay: Toxicity test; Parenteral administration (Test Example 4); assay type: in vivo; conditions: 300 mg/kg parenteral, 7 days observation
Description: Test Example 4 (Toxicity test; Parenteral administration)
Ten ICR mice (Charles River, Co.), male, aged 4 to 5 weeks, were employed per group. The compounds of Examples 1, 5, 8 and 12 were separately suspended in 10% gum arabic, and then, they were individually administered parenterally at a dose of 300 mg/kg for subsequent observation for 7 days. As a result, no death was counted under the above conditions.

Male ICR mice = assay: Toxicity test; Oral administration (Test Example 5); assay type: in vivo; conditions: 1,000 mg/kg oral, 7 days observation
Description: Test Example 5 (Toxicity test; Oral administration)
Five male ICR mice (Charles River, Co.) of age 5 weeks, were employed per group. The compound of Example 22 was suspended in a solvent, which was then administered orally at a dose of 1,000 mg/kg for subsequent observation for 7 days. As a result, no death was counted under the above conditions.

[2] = canine brain enzyme, carbobenzoxyglycylprolyl p-nitroanilide substrate, 37° C., pH 7.0, read-out: Inhibition Potency IC50

T1 sequence (A0A8I3N6C8 1-710): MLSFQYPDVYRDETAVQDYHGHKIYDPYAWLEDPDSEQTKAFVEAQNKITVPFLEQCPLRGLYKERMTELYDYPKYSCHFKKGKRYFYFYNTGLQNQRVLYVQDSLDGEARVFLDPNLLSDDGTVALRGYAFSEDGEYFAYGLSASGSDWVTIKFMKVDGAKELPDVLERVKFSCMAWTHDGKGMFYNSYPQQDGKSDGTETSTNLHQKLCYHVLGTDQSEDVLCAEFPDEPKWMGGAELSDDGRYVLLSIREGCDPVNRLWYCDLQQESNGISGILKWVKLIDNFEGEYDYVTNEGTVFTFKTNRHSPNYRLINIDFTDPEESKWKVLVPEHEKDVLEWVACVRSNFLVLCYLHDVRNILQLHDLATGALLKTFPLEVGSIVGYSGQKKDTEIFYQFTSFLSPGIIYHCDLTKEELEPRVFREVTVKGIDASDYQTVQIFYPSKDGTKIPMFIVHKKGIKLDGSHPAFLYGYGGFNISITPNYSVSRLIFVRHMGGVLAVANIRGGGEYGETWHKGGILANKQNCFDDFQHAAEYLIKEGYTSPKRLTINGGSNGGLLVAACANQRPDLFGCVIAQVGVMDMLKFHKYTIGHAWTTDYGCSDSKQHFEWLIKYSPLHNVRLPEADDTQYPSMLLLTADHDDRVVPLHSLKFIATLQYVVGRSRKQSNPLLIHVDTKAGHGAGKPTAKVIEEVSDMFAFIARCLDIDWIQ

Row | IC50 [1, 2] [µM] | SMILES | Anti-hypoxic Activity (ICR male mice) [%] | death within 7 days (parenteral) (ICR mice) | further results
1 | 0.0014 | O=C[C@@H]1CSCN1C(=O)[C@@H]1CSCN1C(=O)C[C@H]1CCc2ccccc2C1 [Example 10, 3-[3-((S)-1,2,3,4-tetrahydronaphthalen-2-ylacetyl)-L-thioprolyl]-L-thioprolinal] | 129 |  | 
2 |  | O=C([C@@H]1CSCN1C(=O)CC1Cc2ccccc2C1)N1CCC[C@H]1CO [Example 1, 1-[3-(Indan-2-ylacetyl)-L-thioprolyl]-L-prolinol] |  | no death | 
3 | 0.016 | O=C([C@@H]1CSCN1C(=O)C[C@H]1CCc2ccccc2C1)N1CCC[C@H]1C=NO [Example 25, (2S)-1-[3-((S)-1,2,3,4-Tetrahydronaphthalen-2-ylacetyl)-L-thioprolyl]-2-pyrrolidine aldoxime] |  |  | 
4 |  | O=C([C@@H]1CCCN1C(=O)c1cc2ccccc2o1)N1CCC[C@H]1CO [Example 6, 1-[1-(benzofuran-2-ylcarbonyl)-L-prolyl]-L-prolinol] | 128 |  | 
5 | 0.069 | O=C[C@@H]1CCCN1C(=O)[C@@H]1CCCN1C(=O)c1cc2ccccc2o1 [Example 11, 1-[1-(benzofuran-2-ylcarbonyl)-L-prolyl]-L-prolinal] |  |  | 
6 |  | O=C[C@@H]1CSCN1C(=O)[C@@H]1CCCN1C(=O)c1cc2ccccc2o1 [Example 12, 3-[1-(benzofuran-2-ylcarbonyl)-L-prolyl]-L-thioprolinal] |  | no death | 
7 |  | COc1ccc(C(=O)N2CCCC2=O)cc1 [Aniracetam, reference compound] | 115 |  | IC50 [1]: > 1000 µM
8 |  | O=C[C@@H]1CCCN1C(=O)[C@@H]1CSCN1C(=O)C[C@H]1CCc2ccccc2C1 [Example 9, 1-[3-((S)-1,2,3,4-tetrahydronaphthalen-2-ylacetyl)-L-thioprolyl]-L-prolinal] | 123 |  | death within 7 days (oral) (Male ICR mice): no death
9 |  | O=C([C@@H]1CSCN1C(=O)C[C@H]1CCc2ccccc2C1)N1CSC[C@H]1CO [Example 5, 3-[3-((S)-1,2,3,4-tetrahydronaphthalen 2-ylacetyl)-L-thioprolyl]-L-thioprolinol] | 115 | no death | 
10 |  | O=C[C@@H]1CCCN1C(=O)[C@@H]1CSCN1C(=O)CC1Cc2ccccc2C1 [Example 2, 1-[3-(Indan-2-ylacetyl)-L-thioprolyl]-L-prolinal] | 120 |  | 

Row | SMILES | IC50 [1, 2] [µM] | Anti-hypoxic Activity (ICR male mice) [%] | death within 7 days (parenteral) (ICR mice) | further results
11 | O=C[C@@H]1CSCN1C(=O)[C@@H]1CCCN1C(=O)CC1Cc2ccccc2C1 [Example 8, 3-[1-(indan-2-ylacetyl)-L-prolyl]-L-thioprolinal] | 0.0012 | 120 | no death | 
